Experimental data: ChEMBL document CHEMBL4507268 (2021)

What was measured:
Settings in all cases: Compound concentration 1.0 uM
[1] = molecular target: T1, Ephrin type-B receptor 3 (Homo sapiens) (UniProt P54753)
T1 sequence (whole entry): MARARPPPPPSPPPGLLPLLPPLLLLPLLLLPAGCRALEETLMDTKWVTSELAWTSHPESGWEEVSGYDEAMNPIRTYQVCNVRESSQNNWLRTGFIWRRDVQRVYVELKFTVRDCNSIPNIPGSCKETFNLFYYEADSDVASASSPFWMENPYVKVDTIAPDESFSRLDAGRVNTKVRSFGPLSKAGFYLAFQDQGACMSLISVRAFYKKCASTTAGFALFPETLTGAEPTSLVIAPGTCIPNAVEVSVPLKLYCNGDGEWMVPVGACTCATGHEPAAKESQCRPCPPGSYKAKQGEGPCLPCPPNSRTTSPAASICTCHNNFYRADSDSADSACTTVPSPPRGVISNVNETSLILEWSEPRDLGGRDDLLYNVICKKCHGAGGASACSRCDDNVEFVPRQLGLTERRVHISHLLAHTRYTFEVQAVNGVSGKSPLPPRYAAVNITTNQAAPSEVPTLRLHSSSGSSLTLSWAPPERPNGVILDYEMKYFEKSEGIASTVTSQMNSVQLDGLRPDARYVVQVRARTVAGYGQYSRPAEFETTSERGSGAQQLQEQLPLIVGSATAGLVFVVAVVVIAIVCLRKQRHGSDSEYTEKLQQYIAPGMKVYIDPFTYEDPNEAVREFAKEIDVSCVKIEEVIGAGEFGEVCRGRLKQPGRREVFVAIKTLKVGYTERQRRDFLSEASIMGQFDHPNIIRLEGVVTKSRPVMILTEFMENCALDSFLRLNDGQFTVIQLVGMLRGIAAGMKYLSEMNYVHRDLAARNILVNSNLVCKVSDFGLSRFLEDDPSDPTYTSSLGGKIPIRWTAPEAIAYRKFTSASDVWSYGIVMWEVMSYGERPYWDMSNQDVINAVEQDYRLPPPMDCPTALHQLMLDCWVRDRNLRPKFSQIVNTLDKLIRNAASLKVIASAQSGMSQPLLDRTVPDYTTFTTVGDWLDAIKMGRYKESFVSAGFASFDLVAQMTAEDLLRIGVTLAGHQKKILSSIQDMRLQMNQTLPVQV

[2] = molecular target: Homeodomain-interacting protein kinase 3 (Homo sapiens) (UniProt Q9H422)
[3] = molecular target: T2, Testis-specific serine/threonine-protein kinase 3 (Homo sapiens) (UniProt Q96PN8)
T2 sequence (whole entry): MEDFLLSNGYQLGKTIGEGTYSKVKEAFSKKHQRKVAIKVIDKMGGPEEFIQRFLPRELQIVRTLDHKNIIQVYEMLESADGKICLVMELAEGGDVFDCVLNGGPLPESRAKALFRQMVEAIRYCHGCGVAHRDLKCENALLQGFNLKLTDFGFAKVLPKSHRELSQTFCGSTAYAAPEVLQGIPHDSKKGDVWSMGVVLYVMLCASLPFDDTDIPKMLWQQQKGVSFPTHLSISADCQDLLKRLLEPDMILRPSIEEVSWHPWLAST

[4] = molecular target: Phosphatidylinositol 4-phosphate 5-kinase type-1 alpha (Homo sapiens) (UniProt Q99755)
[5] = molecular target: Leukocyte tyrosine kinase receptor (Homo sapiens) (UniProt P29376)
[6] = molecular target: T3, SNF-related serine/threonine-protein kinase (Homo sapiens) (UniProt Q9NRH2)
T3 sequence (whole entry): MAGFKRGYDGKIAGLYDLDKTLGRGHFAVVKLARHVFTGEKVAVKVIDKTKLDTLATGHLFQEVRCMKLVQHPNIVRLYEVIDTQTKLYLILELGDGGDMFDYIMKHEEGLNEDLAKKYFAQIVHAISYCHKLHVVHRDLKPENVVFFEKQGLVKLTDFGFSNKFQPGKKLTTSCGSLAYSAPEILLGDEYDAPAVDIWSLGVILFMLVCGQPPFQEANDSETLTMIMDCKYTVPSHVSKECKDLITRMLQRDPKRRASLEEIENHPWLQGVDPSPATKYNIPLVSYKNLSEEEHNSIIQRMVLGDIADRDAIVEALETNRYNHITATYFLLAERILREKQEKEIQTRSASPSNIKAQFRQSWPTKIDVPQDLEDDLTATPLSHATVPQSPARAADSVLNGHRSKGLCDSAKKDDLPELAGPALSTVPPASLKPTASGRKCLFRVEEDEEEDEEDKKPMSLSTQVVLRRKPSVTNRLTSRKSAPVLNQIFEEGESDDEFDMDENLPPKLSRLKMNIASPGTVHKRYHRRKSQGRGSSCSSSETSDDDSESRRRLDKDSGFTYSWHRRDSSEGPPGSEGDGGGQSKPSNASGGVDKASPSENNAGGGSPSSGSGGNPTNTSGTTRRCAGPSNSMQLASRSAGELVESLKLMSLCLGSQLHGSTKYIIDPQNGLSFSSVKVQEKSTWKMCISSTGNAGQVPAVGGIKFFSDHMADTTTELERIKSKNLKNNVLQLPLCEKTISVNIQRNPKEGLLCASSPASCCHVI

[7] = molecular target: T4, Serine/threonine-protein kinase ULK3 (Homo sapiens) (UniProt Q6PHR2)
T4 sequence (whole entry): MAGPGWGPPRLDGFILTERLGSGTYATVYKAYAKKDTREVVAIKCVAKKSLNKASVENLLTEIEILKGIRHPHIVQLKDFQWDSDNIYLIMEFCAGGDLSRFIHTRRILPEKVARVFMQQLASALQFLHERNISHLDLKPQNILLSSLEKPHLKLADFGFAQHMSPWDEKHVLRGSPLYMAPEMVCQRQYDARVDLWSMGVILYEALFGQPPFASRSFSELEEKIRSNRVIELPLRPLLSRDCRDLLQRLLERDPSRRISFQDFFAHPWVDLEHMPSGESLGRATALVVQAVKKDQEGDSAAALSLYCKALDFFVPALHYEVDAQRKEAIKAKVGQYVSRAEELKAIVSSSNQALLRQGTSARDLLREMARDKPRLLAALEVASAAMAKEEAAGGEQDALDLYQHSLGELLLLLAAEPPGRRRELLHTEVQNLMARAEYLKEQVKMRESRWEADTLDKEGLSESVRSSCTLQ

[8] = molecular target: Protein-tyrosine kinase 2-beta (Homo sapiens) (UniProt Q14289)

Measured: % residual kinase activity

Chain of Protein-tyrosine kinase 2-beta (Homo sapiens) (Q14289 whole entry, looked up): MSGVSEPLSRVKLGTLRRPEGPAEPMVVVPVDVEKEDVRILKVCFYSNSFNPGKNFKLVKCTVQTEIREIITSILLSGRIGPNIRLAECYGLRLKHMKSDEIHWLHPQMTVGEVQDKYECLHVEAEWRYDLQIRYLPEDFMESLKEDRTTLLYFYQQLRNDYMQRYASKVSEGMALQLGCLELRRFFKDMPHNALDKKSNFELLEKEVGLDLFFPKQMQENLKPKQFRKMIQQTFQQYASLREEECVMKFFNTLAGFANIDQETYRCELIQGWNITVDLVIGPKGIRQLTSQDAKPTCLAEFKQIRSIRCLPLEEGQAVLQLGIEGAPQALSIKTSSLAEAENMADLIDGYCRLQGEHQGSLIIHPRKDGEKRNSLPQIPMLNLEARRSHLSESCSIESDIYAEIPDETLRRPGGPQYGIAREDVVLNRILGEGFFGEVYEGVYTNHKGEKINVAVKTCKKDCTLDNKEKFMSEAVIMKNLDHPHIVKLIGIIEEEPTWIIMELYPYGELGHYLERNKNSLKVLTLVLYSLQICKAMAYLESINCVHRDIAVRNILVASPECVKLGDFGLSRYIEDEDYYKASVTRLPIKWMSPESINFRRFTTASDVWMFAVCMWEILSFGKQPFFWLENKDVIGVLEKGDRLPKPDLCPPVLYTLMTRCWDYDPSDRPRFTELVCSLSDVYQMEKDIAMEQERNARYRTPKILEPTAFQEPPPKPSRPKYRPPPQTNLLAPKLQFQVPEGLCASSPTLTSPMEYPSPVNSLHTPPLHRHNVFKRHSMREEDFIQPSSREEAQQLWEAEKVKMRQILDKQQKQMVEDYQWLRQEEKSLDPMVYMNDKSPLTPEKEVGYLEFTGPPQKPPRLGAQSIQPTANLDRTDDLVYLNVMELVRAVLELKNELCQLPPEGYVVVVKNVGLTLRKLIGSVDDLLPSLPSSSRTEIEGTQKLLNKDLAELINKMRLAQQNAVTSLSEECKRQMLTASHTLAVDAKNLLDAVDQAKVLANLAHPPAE
Chain of Phosphatidylinositol 4-phosphate 5-kinase type-1 alpha (Homo sapiens) (Q99755 whole entry): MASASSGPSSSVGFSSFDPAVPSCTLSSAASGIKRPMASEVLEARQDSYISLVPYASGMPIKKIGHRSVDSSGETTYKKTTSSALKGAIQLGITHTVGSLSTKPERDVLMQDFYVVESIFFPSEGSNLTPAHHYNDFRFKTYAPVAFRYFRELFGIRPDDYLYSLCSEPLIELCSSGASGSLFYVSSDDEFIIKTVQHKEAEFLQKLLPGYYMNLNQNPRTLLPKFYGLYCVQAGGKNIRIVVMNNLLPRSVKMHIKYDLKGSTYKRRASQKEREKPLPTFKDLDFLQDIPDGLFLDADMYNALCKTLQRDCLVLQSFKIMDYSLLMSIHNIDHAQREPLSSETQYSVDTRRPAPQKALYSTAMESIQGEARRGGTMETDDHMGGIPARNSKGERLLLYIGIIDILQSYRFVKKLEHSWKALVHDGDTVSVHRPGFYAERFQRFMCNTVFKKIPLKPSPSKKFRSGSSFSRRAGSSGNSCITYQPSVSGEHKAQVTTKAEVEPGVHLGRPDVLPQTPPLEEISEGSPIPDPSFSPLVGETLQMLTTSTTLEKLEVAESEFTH
Chain of Homeodomain-interacting protein kinase 3 (Homo sapiens) (Q9H422 whole entry, looked up): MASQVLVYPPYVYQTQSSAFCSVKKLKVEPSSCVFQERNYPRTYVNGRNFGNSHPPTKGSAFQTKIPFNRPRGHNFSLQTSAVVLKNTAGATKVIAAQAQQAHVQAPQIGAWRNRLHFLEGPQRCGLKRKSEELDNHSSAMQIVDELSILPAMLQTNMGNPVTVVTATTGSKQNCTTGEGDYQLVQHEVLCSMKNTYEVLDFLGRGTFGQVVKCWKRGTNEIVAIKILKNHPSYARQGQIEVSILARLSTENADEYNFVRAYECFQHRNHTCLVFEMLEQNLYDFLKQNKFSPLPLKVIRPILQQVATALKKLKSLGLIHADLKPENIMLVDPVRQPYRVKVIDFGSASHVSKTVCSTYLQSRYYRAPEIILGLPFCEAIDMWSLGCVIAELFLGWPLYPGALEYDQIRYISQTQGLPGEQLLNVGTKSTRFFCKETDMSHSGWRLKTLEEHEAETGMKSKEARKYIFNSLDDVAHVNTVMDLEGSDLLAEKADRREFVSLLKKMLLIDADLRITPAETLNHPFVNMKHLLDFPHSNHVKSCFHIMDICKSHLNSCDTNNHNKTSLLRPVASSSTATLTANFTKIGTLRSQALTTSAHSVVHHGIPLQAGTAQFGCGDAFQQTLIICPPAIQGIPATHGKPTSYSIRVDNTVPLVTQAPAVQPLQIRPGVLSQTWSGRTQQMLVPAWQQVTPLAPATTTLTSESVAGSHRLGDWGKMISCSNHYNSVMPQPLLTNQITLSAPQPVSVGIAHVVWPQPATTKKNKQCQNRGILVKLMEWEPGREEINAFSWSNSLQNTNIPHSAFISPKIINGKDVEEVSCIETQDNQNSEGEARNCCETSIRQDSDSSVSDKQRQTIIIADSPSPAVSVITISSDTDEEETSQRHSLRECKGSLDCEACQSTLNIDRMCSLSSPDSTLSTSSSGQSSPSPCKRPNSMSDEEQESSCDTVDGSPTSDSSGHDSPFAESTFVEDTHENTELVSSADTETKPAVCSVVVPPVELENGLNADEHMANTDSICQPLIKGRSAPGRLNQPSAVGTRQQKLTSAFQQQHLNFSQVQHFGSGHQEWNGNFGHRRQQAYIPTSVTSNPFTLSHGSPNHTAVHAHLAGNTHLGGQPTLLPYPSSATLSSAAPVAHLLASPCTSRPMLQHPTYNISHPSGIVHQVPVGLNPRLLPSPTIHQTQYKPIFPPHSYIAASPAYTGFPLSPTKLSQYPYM
Chain of Leukocyte tyrosine kinase receptor (Homo sapiens) (P29376 whole entry): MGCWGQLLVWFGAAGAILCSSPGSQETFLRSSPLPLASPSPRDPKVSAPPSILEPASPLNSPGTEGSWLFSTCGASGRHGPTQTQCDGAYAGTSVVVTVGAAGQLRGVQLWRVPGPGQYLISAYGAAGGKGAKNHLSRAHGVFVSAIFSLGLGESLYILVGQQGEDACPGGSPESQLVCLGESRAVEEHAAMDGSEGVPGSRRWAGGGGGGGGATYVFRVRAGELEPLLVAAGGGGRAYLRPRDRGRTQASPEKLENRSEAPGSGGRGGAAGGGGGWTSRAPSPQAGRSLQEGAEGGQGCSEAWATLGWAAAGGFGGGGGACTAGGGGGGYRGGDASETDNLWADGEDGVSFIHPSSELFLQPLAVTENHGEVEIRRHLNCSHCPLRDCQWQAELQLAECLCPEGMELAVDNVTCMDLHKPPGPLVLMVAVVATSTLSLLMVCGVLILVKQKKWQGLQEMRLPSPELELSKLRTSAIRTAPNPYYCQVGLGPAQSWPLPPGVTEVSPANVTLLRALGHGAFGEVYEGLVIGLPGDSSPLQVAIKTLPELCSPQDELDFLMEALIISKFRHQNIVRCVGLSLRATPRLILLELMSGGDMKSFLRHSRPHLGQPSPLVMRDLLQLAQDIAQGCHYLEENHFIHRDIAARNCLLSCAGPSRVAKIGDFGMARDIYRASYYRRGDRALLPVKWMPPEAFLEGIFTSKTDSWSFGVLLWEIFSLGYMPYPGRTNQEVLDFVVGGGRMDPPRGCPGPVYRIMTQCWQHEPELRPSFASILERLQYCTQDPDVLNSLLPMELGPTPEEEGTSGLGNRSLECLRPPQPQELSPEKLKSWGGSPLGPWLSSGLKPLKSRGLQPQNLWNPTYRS

CN1CCN(c2cnc3c(C4CCN(C(=O)c5ccc(OC(F)(F)F)cc5N)CC4)ncnc3c2)CC1 [BAY-885]
inactive: [1] 42% | [2] 108% | [3] 108% | [4] 98% | [5] 103% | [6] 118% | [7] 98% | [8] 103%
